Experimental findings from patent publication US5189065A, “Use of derivatives of 9,10-dihydrophenanthrene for the preparation of an anti-tumor medicament” (Roussel Uclaf, priority 1989, dated 1993) are described below.

For experiment [1], the target named is T1, Tyrosinekinase of the EGF (Epidermal Growth Factor) Receptor (Homo sapiens, UniProt P00533).
T1 construct: Membranes of A431 cells (ATCC CRL 1555) are used as the source of EGF receptors; endogenous in cells; host or cells: A431 cell membranes (ATCC CRL 1555)
T1 sequence (P00533 25-1210): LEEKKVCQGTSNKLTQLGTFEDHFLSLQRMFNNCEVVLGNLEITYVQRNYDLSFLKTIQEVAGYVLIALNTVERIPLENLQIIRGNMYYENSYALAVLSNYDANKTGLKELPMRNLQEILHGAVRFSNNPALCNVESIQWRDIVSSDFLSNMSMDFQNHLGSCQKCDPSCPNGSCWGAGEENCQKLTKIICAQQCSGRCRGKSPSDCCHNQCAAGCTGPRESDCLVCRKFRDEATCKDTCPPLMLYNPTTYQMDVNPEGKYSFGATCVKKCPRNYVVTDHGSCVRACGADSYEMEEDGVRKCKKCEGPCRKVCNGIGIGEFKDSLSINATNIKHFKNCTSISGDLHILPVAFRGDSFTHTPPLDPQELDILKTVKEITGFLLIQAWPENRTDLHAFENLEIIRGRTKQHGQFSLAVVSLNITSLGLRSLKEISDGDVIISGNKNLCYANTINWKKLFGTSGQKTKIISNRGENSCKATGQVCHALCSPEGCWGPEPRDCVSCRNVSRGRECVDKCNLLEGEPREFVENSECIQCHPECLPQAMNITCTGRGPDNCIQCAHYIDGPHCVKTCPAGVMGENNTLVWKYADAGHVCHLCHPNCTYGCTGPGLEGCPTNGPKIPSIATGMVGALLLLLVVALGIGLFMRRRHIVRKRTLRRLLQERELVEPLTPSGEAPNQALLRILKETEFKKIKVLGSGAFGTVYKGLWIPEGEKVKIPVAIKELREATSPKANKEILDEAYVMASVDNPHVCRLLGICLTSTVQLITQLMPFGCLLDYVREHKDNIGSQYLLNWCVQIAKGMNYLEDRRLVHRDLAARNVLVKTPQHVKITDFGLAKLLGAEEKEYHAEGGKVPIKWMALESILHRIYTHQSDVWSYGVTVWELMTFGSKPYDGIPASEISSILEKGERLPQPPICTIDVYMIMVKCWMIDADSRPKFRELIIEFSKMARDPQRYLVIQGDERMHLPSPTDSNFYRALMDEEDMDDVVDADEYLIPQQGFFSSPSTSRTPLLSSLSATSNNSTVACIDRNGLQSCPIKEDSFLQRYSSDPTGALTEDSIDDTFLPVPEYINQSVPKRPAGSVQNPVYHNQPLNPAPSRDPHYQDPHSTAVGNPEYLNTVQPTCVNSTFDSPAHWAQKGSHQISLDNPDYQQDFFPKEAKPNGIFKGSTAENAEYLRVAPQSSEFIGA
T1 sequence (P01133 971-1023 partner limits assumed): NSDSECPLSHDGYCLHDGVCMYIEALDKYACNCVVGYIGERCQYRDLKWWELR
The experiment in a line: Inhibition of tyrosinekinase of the EGF receptor (A431 cell membranes). Conditions: membranes of A431 cells; samples containing poly(Glu, Ala, Tyr 6:3:1) substrate and EGF; 15 minutes at 30° C.; read-out: IC50, concentration of substance which inhibits the enzyme activity by 50% (converted). The class given is biochemical. As to the method: 1 - Measurement of the Inhibition of Tyrosinekinase of the EGF (Epidermal Growth Factor) Receptor
Membranes of A431 cells (ATCC CRL 1555) are used as the source of EGF receptors. This cellular lineage expresses a large number of EGF receptors at its surface which have a tyrosinekinase activity.
These cells are pre-incubated with or without EGF (1000 nM) for 15 minutes and are added to a corresponding HEPES buffer (N-2-hydroxyethyl-piperazine-N'-2-ethanesulphonic acid) (with or without EGP) and containing Mg^2+ (10 mM) and Mn^2+ (2 mM) ions, 0.2% of X-100 triton, sodium orthovanadate (20 micromoles) and the inhibitor.
Samples either containing or not containing the poly substrate (Glu, Ala, Tyr 6:3:1) are prepared. The reaction is initiated by the addition of [gamma P^32 ] ATP (32 micromoles). After incubation for 15 minutes at 30° C. the samples are precipitated using 10% […], followed by filtering on a millipore membrane and the incorporated P^32 is measured with a liquid scintillation counter.
The results are expressed in IC50, that is the concentration of substance which inhibits the enzyme activity by 50%, determined by a series of dilutions starting at 51 micrograms/ml in the samples containing the substrate and EGF.

In experiment [2] the test system is catalytic sub-unit of the proteinkinase dependent on cyclic 3',5'-AMP. The experiment is described as follows: Inhibition of the proteinkinase dependent on cyclic 3',5'-AMP. In kind it is biochemical. To be noted: inhibitor 40 micrograms/ml; KEMPTID substrate; pH 6.9; 15 minutes at 30° C. The protocol: 2 - Measurement of the Inhibition of the Proteinkinase Dependent on Cyclic 3',5'-AMP
The catalytic sub-unit of the proteinkinase dependent on cyclic 3',5'-AMP was reconstituted as indicated in SIGMA®. The enzyme activity was measured using KEMPTID® (SIGMA®) as substrate (KEMPTID - Leu-Arg-Arg-Ala-Ser-Leu-Gly).
The inhibitor is pre-incubated at pH 6.9 with the enzyme, the substrate (190 micromoles), Mg^+2 (5 mM), 0.25 mg/ml of BSA (Bovine Serum Albumin) and 3.75 mM of mercaptoethanol in 50 mM of 4-morpholinopropanesulphonic acid.
The reaction is initiated using gamma P^32 ATP (40 micromoles). After 15 minutes at 30° C. an aliquot is placed on an ion-exchange paper ([…]; WHATMAN®) plunged into phosphoric acid (75 mM), washed, dried and the incorporation of P^32 is measured using a liquid scintillation counter.
The results are expressed as a percentage of the enzyme activity inhibition at a concentration of inhibitor of 40 micrograms/ml.

Turning to `CN(C)C1Cc2ccc(O)c(O)c2-c2ccccc21` (stereo not shown) [Product A, 3,4-dihydroxy-9-dimethylamino-9,10-dihydrophenanthrene], the IC50 in experiment [1] was 2350 nM. The “percentage of the enzyme activity inhibition” value in experiment [2] was determined as 19%.

As for `Br.CNC1Cc2ccc(O)c(O)c2-c2ccccc21` (stereo not shown) [Example 3, 3,4-dihydroxy-9-methylamino-9,10-dihydrophenanthrene (hydrobromide)], the IC50 in experiment [1] was 621 nM. The “percentage of the enzyme activity inhibition” value in experiment [2] stood at 18%.
